The source of these data is patent US12319913B2, “5-halouracil-modified microRNAs and their use in the treatment of cancer” (The Research Foundation for The State University of New York, priority 2018, dated 2025).

[5FU] = 5-fluorouracil base replacing uracil

Data set [1] deals with HCT116 derived colon cancer stem cells. The format is cell-based. The conditions noted are these: lethal dose of 5-FU at 100 μM. As to the method:
(§1) For transfections, 1×10^5 cells were plated in six-well plates and transfected with 100 nM of control non-specific miRNA (Thermo Fischer), a modified microRNA, or exogenous native microRNA after 24 hours using Oligofectamine (Thermo Fischer) following the manufacturer's protocols. For reagent free transfection, cells were plated in 6 well plates at (1×10^5) cells per well. Twenty-four hours later 100 pmol miRNA (Control, miR-15a, Mimic-1) were diluted in Optimem (Thermo Fischer) and added to the plate. Media was changed after 24 hours. Media was supplemented with 10% fetal bovine serum (Thermo Fischer). Briefly, cells were cultured in growth media (DMEM/F12 supplemented with B27, 10 ng/mL bFGF, and 20 ng/mL EGF (Life Technologies) in ultra-low attachment flasks) for up to 6 days. The spheroid cells were maintained by collection through gentle centrifugation, dissociation to single cells and replating.
miR-129 mimics eliminated chemotherapy resistant colon cancer stem cells. To determine the impact of certain exemplary modified microRNAs of the present disclosure (i.e., miR-129 mimics) on 5-FU resistant colon cancer stem cells, HCT116 derived colon cancer stem cells were treated with various concentrations of Mimic-1 or 5-FU.

Data set [2] concerns HCT116 colon cancer cells. Kind of data set: WST-1 cell proliferation assay, HCT116. The format is cell-based, human. Particulars: HCT116, in words, vs controls. As to the method:
as §1, with “1×10^5 cells were plated in six-well plates and transfected with 100 nM of control non-specific miRNA (Thermo Fischer), a modified microRNA, or exogenous native microRNA after 24 hours using Oligofectamine” left out
(§2) Cell proliferation assay: Twenty-four hours after transfection, cells were seeded in 96-well plates at a density of 2000 cells per well. The cell proliferation assay was performed on days 1 to 5 by incubating 10 μl WST-1 (Roche Applied Science, Mannheim, Germany) in the culture medium for 1 h and reading the absorbance at 450 and 630 nm. The cell proliferation rate was calculated by subtracting the […]. Experiments for the cell proliferation assay were performed at least three times. The O.D. was calculated by subtracting the absorbance at 630 nm from that at 450 nm. Proliferation experiments were performed three times.

The subject of data set [3] is MDA-MB-231 triple negative breast cancer cells. Put plainly: MTT cell proliferation, MDA-MB-231, with or without oligofectamine. The format is cell-based, human. The conditions noted are these: for cell proliferation without delivery vehicle (no oligofectamine): MDA-MB-231, MTT assay; for cell proliferation in the presence of oligofectamine: MDA-MB-231, MTT assay for 6 days, vs miR-NC. As to the method:
as §1
Furthermore, to test whether or not the modified microRNAs of the present disclosure can be delivered directly to cells and taken up by the cancer cells without the use of transfer agents or vehicles (i.e., oligofectamine), MDA-MB-231 triple negative breast cancer cells were transfected with miR-NC (negative control), exogenous unmodified miR-200b or miR-489, 5-FU-miR-200b or modified miR-489 by using oligofectamine or without delivery vehicle. As shown in FIGS. 17A-17B and 20A, the effects of expression of the exemplary modified miRs tested on breast cancer cell proliferation were monitored by MTT assay for 6 days upon transfection or incubation.
Background: Formazan colour is commonly taken as a measure of viable cells.

The subject of data set [4] is MDC1 and SUZ12. Kind of data set: Western blot of MDC1 and SUZ12 in triple negative breast cancer cells. The format is cell-based, human. Particulars: triple negative breast cancer cells, western blot. As to the method:
Western immunoblot analysis: Forty-eight hours after transfection, equal amounts of protein (15 μg) extracted from cells lysed in RIPA buffer with protease inhibitor (Sigma) and were separated on 10%-12% sodium dodecyl sulfate-polyacrylamide gels using standard procedures. The primary antibodies used for the analysis were rabbit anti-YAP1 monoclonal antibody (1:10000) (Cell Signaling Technologies), anti-DLCK1 (1:500) (Abcam), anti-BCL2 (1:500) (NeoMarkers), anti-MDC1 (1:500), anti-SUZ12 (1:500), anti-pChk-1 (1:500), anti beta-actin (1:500), anti-BMI-1 (1:10000) (Cell Signaling Technologies), mouse anti-human TS antibody (1:500), anti-α-tubulin (1:50000) (Santa Cruz Biotech Inc.), anti-GAPDH (1:100000) (Santa Cruz Biotech Inc.), anti-E2F3 (1:500) (Santa Cruz Biotech Inc.), Horseradish peroxidase-conjugated antibodies against mouse or rabbit (1:5000, Santa Cruz Biotech Inc.) were used as the secondary antibodies. Protein bands were visualized with autoradiography film using SuperSignal West Pico Chemiluminescent Substrate (Thermo Fischer). Western blot density was quantified using Image J software.

For data set [5], the system named is Panc-1 pancreatic cancer cells. Kind of data set: Cell proliferation, Panc-1. The format is cell-based, human. Particulars: PANC-1; 50 nM, 25 nM, 12.5 nM, 6.25 nM, and 3.125 nM. On the procedure:
as §1, with “For transfections, 1×10^5 cells were plated in six-well plates and transfected with 100 nM of control non-specific miRNA (Thermo Fischer), a modified microRNA, or exogenous native microRNA after 24 hours using Oligofectamine (Thermo Fischer) following the manufacturer's protocols.” left out
as §2

Data set [6] relates to AsPC-1 pancreatic cancer cells. Kind of data set: Cell proliferation, AsPC-1. The conditions noted are these: APSC-1; 50 nM, 25 nM, 12.5 nM, 6.25 nM, and 3.125 nM. The format is cell-based, human. As to the method:
as §1, with “For transfections, 1×10^5 cells were plated in six-well plates and transfected with 100 nM of control non-specific miRNA (Thermo Fischer), a modified microRNA, or exogenous native microRNA after 24 hours using Oligofectamine (Thermo Fischer) following the manufacturer's protocols.” left out
as §2

Data set [7] concerns A549 lung cancer cells. Put plainly: Cell proliferation, A549. The format is cell-based, human. Particulars: A549, compared to negative controls. On the procedure: as §1, §2
The subject of data set [8] is Hs766T pancreatic cancer cells. Kind of data set: Cell proliferation, Hs766T. The format is cell-based, human. Particulars: compared to negative controls. On the procedure: as §1, §2
In data set [9] the test system is AGS stomach cancer cells. Put plainly: Cell proliferation, AGS. The format is cell-based, human. The conditions noted are these: compared to negative controls. On the procedure: as §1, §2
Data set [10] relates to SKBR3 breast cancer cells. Put plainly: Cell proliferation, SKBR3. The conditions noted are these: SKBR3, compared to negative controls. The format is cell-based, human. On the procedure: as §1, §2
Data set [11] relates to acute lymphocytic leukemia cell line (REH). Put plainly: Cell proliferation, REH. The format is cell-based, human. The conditions noted are these: compared to negative controls. On the procedure:
as §1, §2

For data set [12] the test system is unchanged. Put plainly: Cell proliferation, REH. The format is cell-based, human. The conditions noted are these: 50 nM, 25 nM, 12.5 nM, 6.25 nM, and 3.125 nM.

Regarding `O=c1[nH]cc(F)c(=O)[nH]1` [5-FU, 5-fluoro-1H-pyrimidine-2,4-dione, reference compound], the “effect on tumor stem cell viability” value in data set [1] was “minimal effect”.
With “CAGU^FGGUUUUACCCU^FAUGGU^FAG (CAGUGGUUUUACCCUAUGGUAG; RNA, [5FU] at 4, 15, 20, backbone not given here) [modified miR-140 [SEQ ID NO. 9], miR-140 in which certain (3) U bases are replaced by 5-fluorouracil]”, the “inhibition of colon cancer cell proliferation” value in data set [2] is recorded as “increased ability to inhibit colorectal cancer cell proliferation”.
With “CGACGGCAUAUACACUACAGUG (chemistry not fully specified; listed as Homo sapiens) [native miR-489, 31]”, in data set [3], the “cell proliferation without delivery vehicle (no oligofectamine)” value is “did not inhibit cell growth” and the “cell proliferation in the presence of oligofectamine” value is “reduced the rate of cell proliferation”. The “cancer cell proliferation, native miR without 5-FU chemotherapy” value in [3] (MDA-MB-231, MTT, compared with 5 μM 5-FU alone) is given as “reduces cancer cell proliferation in a manner similar to that exhibited when cells are treated with 5-FU alone”. The “MDC1 and SUZ12 protein expression” value in data set [4] was “reduction of MDC1 and SUZ12 protein expression”.
As for “CU^FGACCU^FAU^FGAAU^FU^FGACAGCC (CUGACCUAUGAAUUGACAGCC; RNA, [5FU] at 2, 7, 9, 13, 14, backbone not given here) [modified miR-192]”, in [2], the “inhibition of colon cancer cell proliferation” value is on record as “increased ability to inhibit colorectal cancer cell proliferation”. Also, the “cell proliferation, dose dependence” value in data set [5] and in data set [6] was “inhibited in a dose dependent manner” each time. Moreover, the “lung cancer cell proliferation” value in data set [7] is given as “inhibited”. Moreover, the “pancreatic cancer cell proliferation” value in [8] was “inhibited”. Also, in [9], the “gastric cancer cell proliferation” value was “inhibited”. Moreover, the “breast cancer cell proliferation” value in [10] is listed as “inhibited”. In addition, in data set [11], the “leukemia cancer cell proliferation” value is recorded as “inhibited”. In data set [12], the “leukemia cancer cell proliferation, dose dependence” value is reported as “inhibited in a dose dependent manner”.
For the compound “UAAUACUGCCUGGUAAUGAUGA (chemistry not fully specified; listed as Homo sapiens) [native miR-200b, 21]”, the “cell proliferation without delivery vehicle (no oligofectamine)” value in data set [3] was “had no effects on proliferation”; in data set [3] (listed as exogenous miR-200b), “did not inhibit cell growth”. Also, in data set [3], the “cell proliferation in the presence of oligofectamine” value is listed as “reduced the rate of cell proliferation”.
“U^FGGCAGU^FGU^FCU^FU^FAGCU^FGGU^FU^FGU^F (UGGCAGUGUCUUAGCUGGUUGU; all U replaced by 5-fluorouracil, chemistry not fully specified) [modified miR-34, miR-34 in which all (9) U bases are replaced by 5-fluorouracil]”: the “cell proliferation, dose dependence” value in data set [5] and in data set [6] was “inhibited in a dose dependent manner” in each case. Moreover, the “lung cancer cell proliferation” value in [7] is recorded as “inhibited”. Moreover, in data set [8], the “pancreatic cancer cell proliferation” value was “inhibited”. For the same compound, the “gastric cancer cell proliferation” value in data set [9] is “inhibited”. Also, the “breast cancer cell proliferation” value in data set [10] is “inhibited”. Besides, the “leukemia cancer cell proliferation” value in data set [11] was “inhibited”. Also, in [12], the “leukemia cancer cell proliferation, dose dependence” value was “inhibited in a dose dependent manner”.
On to “U^FGU^FAACAGCAACU^FCCAU^FGU^FGGA (UGUAACAGCAACUCCAUGUGGA; RNA, [5FU] at 1, 3, 13, 17, 19, backbone not given here) [modified miR-194]”, for which the “cell proliferation, dose dependence” value in data set [5] and in data set [6] was “inhibited in a dose dependent manner” each time. Also, the “lung cancer cell proliferation” value in [7] is given as “inhibited”. In [8], the “pancreatic cancer cell proliferation” value is “inhibited”. The “gastric cancer cell proliferation” value in data set [9] is “inhibited”. Also, the “breast cancer cell proliferation” value in [10] is “inhibited”. Further, the “leukemia cancer cell proliferation” value in data set [11] was “inhibited”. The “leukemia cancer cell proliferation, dose dependence” value in data set [12] is “inhibited in a dose dependent manner”.
